Experimental data reported in US20230159496A1, “COMPOUNDS AND METHODS FOR MODULATING SPLICING” (REMIX THERAPEUTICS INC., priority 2020, published 2023).
Read-outs that look alike come from different tables or passages of the source.

What was measured:
Assay type in all cases: cell-based
[1] = system: HTT mRNA; assay: Splicing assay (RT-qPCR) monitoring HTT canonical junction (CJ) and alternative junction (AJ) mRNA isoforms; settings: A673 or K562 cells, 24 h treatment, top dose 10 uM
Experimental: Compounds described herein were used to modulate RNA transcript abundance in cells. The expression of a target mRNA was measured by detecting the formation of an exon-exon junction in the canonical transcript (CJ). A compound mediated exon-inclusion event was detected by observing an increase in formation of a new junction with an alternative exon (AJ). Real-time qPCR assays were used to detect these splicing switches and interrogate the potency of various compounds towards different target genes. A high-throughput real time quantitative PCR (RT-qPCR) assay was developed to measure these two isoforms of the mRNA (CJ and AJ) for an exemplary gene, HTT, together with a control housekeeping gene, GAPDH or GUSB or PPIA, used for normalization. Briefly, the A673 or K562 cell line was treated with various compounds described herein (e.g., compounds of Formula (I)). After treatment, the levels of the HTT mRNA targets were determined from each sample of cell lysate by cDNA synthesis followed by qPCR.
• Cells-to-CT 1-step kit: ThermoFisher A25602, Cells-to-CT lysis reagent: ThermoFisher 4391851C, TaqMan™ Fast Virus 1-Step Master Mix: ThermoFisher 4444436 • GAPDH: VIC-PL, ThermoFisher 4326317E (Assay: Hs99999905_m1)—used for K562/suspension cell lines • GUSB: VIC-PL, ThermoFisher 4326320E (Assay: Hs99999908_m1)—used for K562/suspension cell lines • PPIA: VIC-PL, ThermoFisher 4326316E (Assay: Hs99999904_m1) — used for A673/adherent cell lines
The A673 cell line was cultured in DMEM with 10% FBS. Cells were diluted with full growth media and plated in a 96-well plate (15,000 cells in 100 ul media per well). The plate was incubated at 37° C. with 5% CO2 for 24 hours to allow cells to adhere. An 11-point 3-fold serial dilution of the compounds was made in DMSO then diluted in media in an intermediate plate. Compounds were transferred from the intermediate plate to the cell plate with the top dose at a final concentration of 10 uM in the well. Final DMSO concentration was kept at or below 0.25%. The cell plate was returned to the incubator at 37° C. with 5% CO2 for an additional 24 hours.
The K562 cell line was cultured in IMDM with 10% FBS. For K562, cells were diluted with full growth media and plated in either a 96-well plate (50,000 cells in 50 uL media per well) or a 384-well plate (8,000-40,000 cells in 45 uL media per well). An 11-point 3-fold serial dilution of the compounds were made in DMSO then diluted in media in an intermediate plate. Compound was transferred from the intermediate plate to the cell plate with the top dose at a final concentration of 10 uM in the well. Final DMSO concentration was kept at or below 0.25%. Final volume was 100 uL for 96-well plate and 50 uL for 384-well plate. The cell plate was then placed in an incubator at 37° C. with 5% CO2 for 24 hours.
The cells were then gently washed with 50 uL-100 uL cold PBS before proceeding to addition of lysis buffer. 30 uL-50 uL of room temperature lysis buffer with DNAse I (and optionally RNAsin) was added to each well. Cells were shaken/mixed thoroughly at room temperature for 5-10 minutes for lysis to take place and then 3 uL-5 uL of room temperature stop solution was added and wells were shaken/mixed again. After 2-5 minutes, the cell lysate plate was transferred to ice for RT-qPCR reaction setup. The lysates could also be frozen at −80° C. for later use.
In some cases, a direct lysis buffer was used. An appropriate volume of 3× lysis buffer (10 mM Tris, 150 mM NaCl, 1.5%-2.5% Igepal and 0.1-1 U/uL RNAsin, pH 7.4) was directly added to either K562 or A673 cells in media and mixed by pipetting 3 times. The plates were then incubated at room temperature with shaking/rocking for 20-50 minutes to allow for lysis to take place. After this time, the cell lysate plate was transferred to ice to set up for the RT-qPCR reactions. The lysates could also be frozen at −80° C. for later use. […]

[2] = system: HTT CJ mRNA; assay: Gene panel canonical junction qPCR assay, HTT; settings: decrease in CJ mRNA levels, gene panel; read-out: HTT IC50
Experimental: (§1) The expression of a target mRNA was measured by detecting the formation of an exon-exon junction in the canonical transcript (CJ). A compound mediated exon-inclusion event was detected by observing an increase in formation of a new junction with an alternative exon (AJ). Real-time qPCR assays were used to detect these splicing switches and interrogate the potency of various compounds towards different target genes. A high-throughput real time quantitative PCR (RT-qPCR) assay was developed to measure these two isoforms of the mRNA (CJ and AJ) for an exemplary gene, HTT, together with a control housekeeping gene, GAPDH or GUSB or PPIA, used for normalization. Briefly, the A673 or K562 cell line was treated with various compounds described herein (e.g., compounds of Formula (I)). After treatment, the levels of the HTT mRNA targets were determined from each sample of cell lysate by cDNA synthesis followed by qPCR. The A673 cell line was cultured in DMEM with 10% FBS. Cells were diluted with full growth media and plated in a 96-well plate (15,000 cells in 100 ul media per well). The plate was incubated at 37° C. with 5% CO2 for 24 hours to allow cells to adhere. An 11-point 3-fold serial dilution of the compounds was made in DMSO then diluted in media in an intermediate plate. Compounds were transferred from the intermediate plate to the cell plate with the top dose at a final concentration of 10 uM in the well. Final DMSO concentration was kept at or below 0.25%. The cell plate was returned to the incubator at 37° C. with 5% CO2 for an additional 24 hours. The K562 cell line was cultured in IMDM with 10% FBS. For K562, cells were diluted with full growth media and plated in either a 96-well plate (50,000 cells in 50 uL media per well) or a 384-well plate (8,000-40,000 cells in 45 uL media per well). An 11-point 3-fold serial dilution of the compounds were made in DMSO then diluted in media in an intermediate plate. Compound was transferred from the intermediate plate to the cell plate with the top dose at a final concentration of 10 uM in the well. Final DMSO concentration was kept at or below 0.25%. Final volume was 100 uL for 96-well plate and 50 uL for 384-well plate. The cell plate was then placed in an incubator at 37° C. with 5% CO2 for 24 hours. The cells were then gently washed with 50 uL-100 uL cold PBS before proceeding to addition of lysis buffer. 30 uL-50 uL of room temperature lysis buffer with DNAse I (and optionally RNAsin) was added to each well. Cells were shaken/mixed thoroughly at room temperature for 5-10 minutes for lysis to take place and then 3 uL-5 uL of room temperature stop solution was added and wells were shaken/mixed again. After 2-5 minutes, the cell lysate plate was transferred to ice for RT-qPCR reaction setup. The lysates could also be frozen at −80° C. for later use. In some cases, a direct lysis buffer was used. An appropriate volume of 3× lysis buffer (10 mM Tris, 150 mM NaCl, 1.5%-2.5% Igepal and 0.1-1 U/uL RNAsin, pH 7.4) was directly added to either K562 or A673 cells in media and mixed by pipetting 3 times. The plates were then incubated at room temperature with shaking/rocking for 20-50 minutes to allow for lysis to take place. After this time, the cell lysate plate was transferred to ice to set up for the RT-qPCR reactions. The lysates could also be frozen at −80° C. for later use. To set up 10 uL RT-qPCR reactions, cell lysates were transferred to 384-well qPCR plates containing the master mix according to the table below. The plates were sealed, gently vortexed, and spun down before the run. The volumes were adjusted accordingly in some instances where the reaction was carried in 20 uL. The table below summarizes the components of the RT-qPCR reactions: The RT-qPCR reaction was performed using a QuantStudio (ThermoFisher) under the following fast cycling conditions. All samples and standards were analyzed at least in duplicate.

[3] = system: SMN2 CJ mRNA; assay: Gene panel canonical junction qPCR assay, SMN2; settings: decrease in CJ mRNA levels, gene panel; read-out: SMN2 IC50
Experimental: as §1

[4] = system: Target C CJ mRNA; assay: Gene panel canonical junction qPCR assay, Target C; settings: decrease in CJ mRNA levels, gene panel; read-out: Target C IC50
Experimental: as §1

[5] = decrease in CJ mRNA (50% response), read-out: HTT CJ AC50
[6] = increase in AJ mRNA (50% response), read-out: HTT AJ AC50

Structure (SMILES)	AC50 [1, 5] [nM]	AC50 [1, 6] [nM]	IC50 [2] [nM]	IC50 [3] [nM]	IC50 [4] [µM]
Cc1cc(-c2ccc3c(=O)n(N4CCN(C)CC4)cnc3c2)cc2cn(C)nc12 [Compound 175, 7-(2,7-dimethyl-2H-indazol-5-yl)-3-(4-methylpiperazin-1-yl)quinazolin-4(3H)-one]	> 10000	1000 to 10000	1000 to 10000	1000 to 10000	> 10
Cc1cn2nc(-c3ccc4c(=O)n([C@H]5CCN(C)[C@H](C)C5)ncc4c3)cc(C)c2n1 [Compound 278]	< 100	< 100	< 100	< 100	0.1 to 1
Cc1cn2cc(-c3ccc4c(=O)n(C5CCN(C)CC5)cnc4c3)c(C)cc2n1 [Compound 246]	1000 to 10000	1000 to 10000	1000 to 10000	1000 to 10000	1 to 10
Cc1cn2cc(-c3ccc4nc(N5CCNC6(CC6)C5)[nH]c(=O)c4c3)cc(F)c2n1 [Compound 191, 6-(8-fluoro-2-methylimidazo[1,2-a]pyridin-6-yl)-2-(4,7-diazaspiro[2.5]octan-7-yl)quinazolin-4(3H)-one]	> 10000	> 10000	> 10000	> 10000	> 10
CN1CCC(n2cnc3cc(-c4cc(F)c5nn(C)cc5c4)ccc3c2=O)CC1 [Compound 209, 7-(7-fluoro-2-methyl-2H-indazol-5-yl)-3-(1-methylpiperidin-4-yl)quinazolin-4(3H)-one]	1000 to 10000	100 to 1000	1000 to 10000	< 100	1 to 10
Cn1cc2ccc(-n3cnc4cc(NC5CCNCC5)ccc4c3=O)cc2n1 [Compound 204, 3-(2-methyl-2H-indazol-6-yl)-7-(piperidin-4-ylamino)quinazolin-4(3H)-one]	> 10000	> 10000	> 10000	> 10000	> 10
Cc1cc(-c2cc(F)c3c(=O)n(C4CCN(C)CC4)cnc3c2)cc2cn(C)nc12 [Compound 233, 7-(2,7-dimethyl-2H-indazol-5-yl)-5-fluoro-3-(1-methylpiperidin-4-yl)quinazolin-4(3H)-one]	100 to 1000	100 to 1000	100 to 1000	< 100	1 to 10
Cc1cn2cc(-c3ccc4c(c3)CCN(C3CCNCC3)C4=O)cc(C(F)(F)F)c2n1 [Compound 252, 6-[2-methyl-8-(trifluoromethyl)imidazo[1,2-a]pyridin-6-yl]-2-(piperidin-4-yl)-3,4-dihydroisoquinolin-1-one]	> 10000	> 10000	> 10000	100 to 1000	> 10
Cc1cn2nc(-c3ccc4c(=O)n(C5CCN(C)CC5)cnc4c3F)cc(C)c2n1 [Compound 290, 7-(2,8-dimethylimidazo[1,2-b]pyridazin-6-yl)-8-fluoro-3-(1-methylpiperidin-4-yl)quinazolin-4(3H)-one]	100 to 1000	100 to 1000	100 to 1000	100 to 1000	0.1 to 1
Cc1cn2nc(-c3ccc4c(=O)n(C5CCNCC5)ncc4c3)nc2c(C)n1 [Compound 259]	100 to 1000	100 to 1000	100 to 1000	100 to 1000	0.1 to 1
Cc1cc(-c2ccc3nc(NC4CCN(C)CC4)[nH]c(=O)c3c2)cc2cn(C)nc12 [Compound 167]	> 10000	> 10000	> 10000	> 10000	> 10
CN1CCN(c2ccc3c(=O)n(-c4ccc5cn(C)nc5c4)cnc3c2)CC1 [Compound 178, 3-(2-methyl-2H-indazol-6-yl)-7-(4-methylpiperazin-1-yl)quinazolin-4(3H)-one]	> 10000	> 10000	> 10000	> 10000	> 10
